Data: paper PMC4864240, “Biotype Characterization, Developmental Profiling, Insecticide Response and Binding Property of Bemisia tabaci Chemosensory Proteins: Role of CSP in Insect Defense” (PLoS ONE, 2016)
pIC50: −log10 of the molar value.

Experiments:
[1] = test system: B. tabaci Q-biotype adults; assay: Thiamethoxam cotton leaf-dip exposure, gene expression by qRT-PCR, biotype Q; format: in vivo, Bemisia tabaci
Procedure: (§1) One-step Reverse transcriptase PCR (TAKARA Bio. Inc) was used to check for tissue-distribution of CSP1 following the method described in Liu et al.. qRT-PCR was used to measure the changes of CSP1, CSP2 and CSP3 gene expression during development and over insecticide exposure. In a typical qRT-PCR experiment, cDNA templates (20 ng/μl) were used in a total volume of 20 μl containing SYBR Green I PCR Master Mix (Roche) and 200 nM of each primer, using 96-well optical-grade PCR plates and matched optical-grade membrane of StepOne Plus ABI system. qPCR primers were specifically designed to generate an amplicon of about 100–150 bps:
(§2) qRT-PCR products were sequenced to attest primer specificity. Each sample in B and Q was analyzed in triplicates. Three biological samples were used for each time point at each developmental stage and in the experiments on the effects of insecticide on the expression of CSP genes (see below). Reactions were run in a StepOne Plus system with initial denaturing step consisting of 2 min at 50°C and 10 min at 95°C, followed by 40 cycles of 15 s at 95°C-30 s at 60°C and terminated by a dissociation curve program from 60 to 95°C with a heating rate of 0.1°C and a continuous fluorescence acquisition. Expression levels were determined using the relative 2(-Delta Delta C(T)) method. Data were statistically analyzed by one-way Anova in SPSS.
(§3) Thiamethoxam is one major neonicotinoid insecticide, known to act on the nicotinic acetylcholine receptors (nAChR) within the insect central nervous system. To expose B. tabaci to the neonicotinoid insecticide thiamethoxam (25% WG, Syngenta, China), we chose the cotton leaf-dip method. One week<-old adult forms from the laboratory colonies of B- and Q-biotypes of B. tabaci were collected separately and exposed in the laboratory conditions (26°C temperature, 60% humidity, 16/8 h day/night) to 0, 6.25, 12.5, 25 and 50 μg/ml of thiamethoxam, respectively. Significant mortality rate was observed only for higher doses […] at different exposure time.
(§4) The experiment started (time 0) when insecticide treated and non-treated plant discs (2.5 cm diameter) were individually placed on agar base in 20-ml glass vials.Twenty-eight whiteflies belonging either to B or Q-biotype were aspirated into each vial. Vials were capped with an absorbent cotton stopper and inverted. Insecticide-treated whiteflies fed in treated vials on cotton plant leaf discs dipped for 10 s in formulated thiamethoxam diluted with distilled water. Whiteflies kept in vials containing cotton plant leaf discs of the same diameter dipped for 10 s in distilled water only were used as controls (0 μg/ml of thiamethoxam). After 1, 4, 24, 48 and 72 h post-exposure, all individuals in each category were collected in an eppendorf tube in treated and untreated groups of whiteflies in each of the two biotypes, kept on ice for 10 min and freeze-dried in nitrogen before storage at -70°C.

[2] = test system: B- and Q-biotypes of B. tabaci; assay: Thiamethoxam cotton leaf-dip exposure, mortality; format: in vivo, Bemisia tabaci
Procedure: as §3
as §4, with “After 1, 4, 24, 48 and 72 h post-exposure, all individuals in each category were collected in an eppendorf tube in treated and untreated groups of whiteflies in each of the two biotypes, kept on ice for 10 min and freeze-dried in nitrogen before storage at -70°C.” left out

[3] = test system: B. tabaci B-biotype adults; assay: Thiamethoxam cotton leaf-dip exposure, gene expression by qRT-PCR, biotype B; format: in vivo, Bemisia tabaci
Procedure: as §1, §2, §3
as §4, with “After 1, 4, 24, 48 and 72 h post-exposure, all individuals in each category were collected in an eppendorf tube in treated and untreated groups of whiteflies in each of the two biotypes, kept on ice for 10 min and freeze-dried in nitrogen before storage at -70°C.” left out

BtabCSP1 = target: T1, BtabCSP1 (Bemisia tabaci, UniProt D6N3A3); assay: biochemical; format: binding
T1 sequence (D6N3A3 20-126): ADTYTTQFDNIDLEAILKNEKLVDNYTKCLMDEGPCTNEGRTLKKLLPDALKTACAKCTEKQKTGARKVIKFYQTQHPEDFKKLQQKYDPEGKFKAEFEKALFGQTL
Procedure: Protein-ligand binding affinity was determined for the three recombinant proteins. Emission fluorescence spectra were recorded on a Jasco FP-6500 Series fluorescence spectrofluorometer. […] Fluorescence was measured using an exciting wavelength of 337 nm. Emission spectrum was recorded between 350 and 500 nm.

Structure (SMILES): CN1COCN(Cc2cnc(Cl)s2)/C1=N\[N+](=O)[O-] [Thiamethoxam]
- CSP2 and CSP3 expression ([1]; 1-72 h, 0-50 μg/ml): no time/dose effect
- CSP1 gene expression ([1]; 1 and 4 h, all five doses): no changes
- CSP1 gene expression ([1]; 24 h, gradual concentrations): gradual increase
- CSP1 gene expression ([1]; 48 h): No effects
- increase in CSP1 gene expression (factor) ([1]; 72 h exposure, 12.5 and 50 μg/ml): 10–25
- CYP6CM1 expression ([1]; sublethal dose): increased
- CSP1 expression up-regulated ([1]; sublethal doses, 24 and 72 h): 10–20 fold
- mortality ([2]; 100 μg/ml, 72 h exposure): killed most of the whiteflies
- doses with significant mortality rate ([2]; different exposure time): > 100 µg/mL
- CSP1 expression, time/dose effect ([3]; 1-72 h, 0-50 μg/ml): did not observe such a time/dose effect
- CSP2 and CSP3 expression ([3]; 1-72 h, 0-50 μg/ml): no time/dose effect
- CSP1 gene expression ([3]; 1 and 4 h, all five doses): no changes
- CYP6CX1 expression ([3]; sublethal dose): reduced
- pIC50 (BtabCSP1): < 4.30
